Laboratory results reported in patent publication US9493441B2, “Acyclic cyanoethylpyrazoles as janus kinase inhibitors” (Merck Sharp & Dohme Corp., priority 2011, dated 2016).
pIC50: −log10 of the molar value. Like-named read-outs stand apart in the source and are kept apart here.

How the values were obtained:
JAK1 = JAK1 (Homo sapiens (Human), UniProt P23458); assay: Jak biochemical HTRF assay, JAK1; conditions: for IC50: JAK1 IC50 (nM), recombinant GST-tagged catalytic domain, [ATP] 31.8 μM
JAK2 = JAK2 (Homo sapiens (Human), UniProt O60674); assay: Jak biochemical HTRF assay, JAK2; conditions: for IC50: JAK2 IC50 (nM), recombinant GST-tagged catalytic domain, [ATP] […]
JAK2, sequence (O60674 849-1124): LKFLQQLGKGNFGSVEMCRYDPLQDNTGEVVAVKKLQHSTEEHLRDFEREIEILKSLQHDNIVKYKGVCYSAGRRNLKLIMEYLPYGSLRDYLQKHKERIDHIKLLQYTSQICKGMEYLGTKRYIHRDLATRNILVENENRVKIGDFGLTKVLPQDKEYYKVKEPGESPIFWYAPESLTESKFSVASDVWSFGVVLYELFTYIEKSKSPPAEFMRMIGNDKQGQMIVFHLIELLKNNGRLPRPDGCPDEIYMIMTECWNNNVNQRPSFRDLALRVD

JAK1, sequence (P23458 875-1153): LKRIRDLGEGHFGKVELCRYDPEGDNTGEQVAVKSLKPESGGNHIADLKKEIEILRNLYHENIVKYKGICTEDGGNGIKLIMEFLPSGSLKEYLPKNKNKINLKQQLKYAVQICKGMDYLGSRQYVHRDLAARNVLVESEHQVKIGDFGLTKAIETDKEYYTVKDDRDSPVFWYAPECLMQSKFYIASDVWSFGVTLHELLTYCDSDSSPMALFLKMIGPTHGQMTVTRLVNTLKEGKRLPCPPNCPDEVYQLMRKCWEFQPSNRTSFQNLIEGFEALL

IC50 (JAK1) | IC50 (JAK2) | pIC50 (JAK1; read-out: JAK1 IC50, recombinant GST-tagged catalytic domain, [ATP] 31.8 μM) | pIC50 (JAK2; read-out: JAK2 IC50, recombinant GST-tagged catalytic domain, [ATP] […]) | SMILES
959 nM | 1500 nM | – | – | CN(C)CCOC(=O)N1CCC([C@H](CC#N)n2cc(C(N)=O)c(Nc3ccc(F)cc3)n2)CC1 (stereo in doubt) [Example 11-1, 2-(Dimethylamino)ethyl 4-(1-{4-carbamoyl-3-[(4-fluorophenyl)amino]-1H-pyrazol-1-yl}-2-cyanoethyl)piperidine-1-carboxylate]
2 nM | 7 nM | – | – | N#CCC(C1CC1)n1cc(C(N)=O)c(Nc2ccc3c(c2)CN(CC(F)(F)F)C3=O)n1 (stereo not shown) [Example 4-31, 1-(2-cyano-1-cyclopropylethyl)-3-{[1-oxo-2-(2,2,2-trifluoroethyl)-2,3-dihydro-1H-isoindol-5-yl]amino}-1H-pyrazole-4-carboxamide]
9 nM | 31 nM | – | – | N#CCC(C1CCCC1)n1cc(C(N)=O)c(Nc2ccc(C(=O)N3CCS(=O)(=O)CC3)cc2)n1 (stereo not shown) [Example 1-5, 1-(2-cyano-1-cyclopentylethyl)-3-({4-[(1,1-dioxidothiomorpholin-4-yl)carbonyl]phenyl}amino)-1H-pyrazole-4-carboxamide]
55 nM | 890 nM | – | – | COC(=O)N1CCC(C(CC#N)n2cc(C(N)=O)c(Nc3ccc(F)cc3)n2)CC1 (stereo not shown) [Example 11-2, methyl 4-(1-{4-carbamoyl-3-[(4-fluorophenyl)amino]-1H-pyrazol-1-yl}-2-cyanoethyl)piperidine-1-carboxylate]
61 nM | 417 nM | – | – | CC(CC#N)n1cc(C(N)=O)c(Nc2ccccc2)n1 (stereo not shown) [Example 1-6, 1-(2-cyano-1-methylethyl)-3-(phenylamino)-1H-pyrazole-4-carboxamide]
2 nM | 17 nM | – | – | N#CCC(C1CC1)n1cc(C(N)=O)c(Nc2ccc3c(c2)CCC3=O)n1 (stereo not shown) [Example 4-19, 1-(2-cyano-1-cyclopropylethyl)-3-[(1-oxo-2,3-dihydro-1H-inden-5-yl)amino]-1H-pyrazole-4-carboxamide]
131 nM | 425 nM | – | – | N#CCC(C1CC1)n1cc(C(N)=O)c(Nc2cncc(C#N)c2)n1 (stereo not shown) [Example 4-18, 1-(2-cyano-1-cyclopropylethyl)-3-[(5-cyanopyridin-3-yl)amino]-1H-pyrazole-4-carboxamide]
2 nM | 34 nM | – | – | N#CCC(C1CC1)n1cc(C(N)=O)c(Nc2ccc3c(c2)C=CS3(=O)=O)n1 (stereo not shown) [Example 4-35, 1-(2-cyano-1-cyclopropylethyl)-3-[(1,1-dioxido-1-benzothiophen-5-yl)amino]-1H-pyrazole-4-carboxamide]
– | – | 6.65 | 5.95 | C[C@@H](CC#N)n1cc(C(N)=O)c(Nc2ccccc2)n1 (single isomer, unassigned) [Example 17-1, 1-[(2S or 2R)-1-cyanopropan-2-yl]-3-(phenylamino)-1H-pyrazole-4-carboxamide]
44 nM | 1050 nM | – | – | CCOC(=O)N1CCC([C@H](CC#N)n2cc(C(N)=O)c(Nc3ccc(F)cc3)n2)CC1 (single isomer, unassigned) [Example 12-4, ethyl 4-[(1S or 1R)-1-{4-carbamoyl-3-[(4-fluorophenyl)amino]-1H-pyrazol-1-yl}-2-cyanoethyl]piperidine-1-carboxylate]
52 nM | 861 nM | – | – | N#CC[C@@H](C1CCN(C(=O)OC2COC2)CC1)n1cc(C(N)=O)c(Nc2ccc(F)cc2)n1 [Example 11-4, oxetan-3-yl 4-[(1S)-1-{4-carbamoyl-3-[(4-fluorophenyl)amino]-1H-pyrazol-1-yl}-2-cyanoethyl]piperidine-1-carboxylate]
245 nM | 1500 nM | – | – | CC(C)COC(=O)N1CCC([C@H](CC#N)n2cc(C(N)=O)c(Nc3ccc(F)cc3)n2)CC1 (single isomer, unassigned) [Example 12-3, 2-methylpropyl 4-[(1S or 1R)-1-{4-carbamoyl-3-[(4-fluorophenyl)amino]-1H-pyrazol-1-yl}-2-cyanoethyl]piperidine-1-carboxylate]
1 nM | 3 nM | – | – | CN(C)S(=O)(=O)c1ccc(Nc2nn(C(CC#N)C3CC3)cc2C(N)=O)cc1 (stereo not shown) [Example 6-4, 1-(2-cyano-1-cyclopropylethyl)-3-{[4-(dimethylsulfamoyl)phenyl]amino}-1H-pyrazole-4-carboxamide]
348 nM | 1190 nM | – | – | N#CCCn1cc(C(N)=O)c(Nc2ccccc2)n1 [Example 1-4, 1-(2-cyanoethyl)-3-(phenylamino)-1H-pyrazole-4-carboxamide]
628 nM | 1500 nM | – | – | N#CC[C@@H](C1CCN(C(=O)OC2CCCCC2)CC1)n1cc(C(N)=O)c(Nc2ccc(F)cc2)n1 (single isomer, unassigned) [Example 12-5, cyclohexyl 4-[(1S or 1R)-1-{4-carbamoyl-3-[(4-fluorophenyl)amino]-1H-pyrazol-1-yl}-2-cyanoethyl]piperidine-1-carboxylate]
48 nM | 546 nM | – | – | CCC(CC#N)n1cc(C(N)=O)c(Nc2ccccc2)n1 (stereo not shown) [Example 1-7, 1-[1-(cyanomethyl)propyl]-3-(phenylamino)-1H-pyrazole-4-carboxamide]
10 nM | 79 nM | – | – | N#CCC(C1CC1)n1cc(C(N)=O)c(Nc2ccccc2)n1 (single isomer, unassigned) [Example 17-3, 1-[(1S or 1R)-2-cyano-1-cyclopropylethyl]-3-(phenylamino)-1H-pyrazole-4-carboxamide]
5 nM | 24 nM | – | – | N#CCc1ccc(Nc2nn(C(CC#N)C3CC3)cc2C(N)=O)cc1 (stereo not shown) [Example 4-8, 1-(2-cyano-1-cyclopropylethyl)-3-{[4-(cyanomethyl)phenyl]amino}-1H-pyrazole-4-carboxamide]
47 nM | 742 nM | – | – | N#CCC(C1CCCC1)n1cc(C(N)=O)c(Nc2ccccc2)n1 (single isomer, unassigned) [Example 16-3, 1-[(1S or 1R)-2-cyano-1-cyclopentylethyl]-3-(phenylamino)-1H-pyrazole-4-carboxamide]
1 nM | 10 nM | – | – | N#CCC(C1CC1)n1cc(C(N)=O)c(Nc2ccc(S(N)(=O)=O)cc2)n1 (stereo not shown) [Example 6-3, 1-(2-cyano-1-cyclopropylethyl]-3-[(4-sulfamoylphenyl)amino]-1H-pyrazole-4-carboxamide]
